Assay results from US11000033B2, “Ketone or oxime compound, and herbicide” (NISSAN CHEMICAL CORPORATION, priority 2014, dated 2021).

What was measured:
Type in all cases: in vivo
[1] = system: Echinochloa oryzacola Vasing.; assay: Test Example 2: herbicidal activity, application during weed generation in submerged conditions (symbol A); settings: Table 23; application herbicide amount 320 g/ha; grade 0-5 by criteria of Test Example 1
In short: (§1)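 Flooded-soil post-emergence test: emulsion of compound, water-diluted to target rate, applied to paddy water surface at 1–2 leaf stage of mixed-sown weeds (alluvial soil, 4 cm water, 25–30° C. greenhouse); visual rating 3 weeks after application.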

Monochoria vaginalis = assay: Test Example 2: herbicidal activity, application during weed generation in submerged conditions (symbol C); settings: Table 23; application herbicide amount 320 g/ha; grade 0-5 by criteria of Test Example 1
In short: as §1

[2] = system: Echinochloa crus-galli var. crus-galli; assay: Test Example 3: herbicidal effect by foliage application, Wagner pot (symbol H); settings: application herbicide amount 320 g/ha
In short: (§2)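 Rating at 3 weeks post-spray, by defined criteria. Treatment: emulsion diluted with water to a predetermined amount, applied evenly to foliage of 14-day-old plants raised in alluvial soil flooded 0.1–0.5 cm deep at 25–30 °C, rice co-sown.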

Leptochloa chinensis = assay: Test Example 3: herbicidal effect by foliage application, Wagner pot (symbol D); settings: application herbicide amount 320 g/ha
In short: as §2

Cyperus difformis = assay: Test Example 3: herbicidal effect by foliage application, Wagner pot (symbol E); settings: application herbicide amount 320 g/ha
In short: as §2

Digitaria ciliaris = assay: Test Example 4: herbicidal effect by soil treatment (symbol F); settings: application herbicide amount 320 g/ha
In short: (§3)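 Seeds were sown in sterilized diluvial soil, covered with about 1.5 cm of soil, and the soil surface was sprayed with a water-diluted emulsion of the compound at a predetermined rate. Plants grew in a greenhouse at 25° C. to 30° C.; effects were scored visually 3 weeks after application.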

Setaria viridis = assay: Test Example 4: herbicidal effect by soil treatment (symbol G); settings: application herbicide amount 320 g/ha
In short: as §3

Alopecurus myosuroides = assay: Test Example 4: herbicidal effect by soil treatment (symbol J); settings: application herbicide amount 320 g/ha
In short: as §3

Abutilon theophrasti = assay: Test Example 4: herbicidal effect by soil treatment (symbol M); settings: application herbicide amount 320 g/ha
In short: as §3

Stellaria media [3] = assay: Test Example 4: herbicidal effect by soil treatment (symbol P); settings: application herbicide amount 320 g/ha
In short: as §3

Veronica persica = assay: Test Example 4: herbicidal effect by soil treatment (symbol R); settings: application herbicide amount 320 g/ha
In short: as §3

corn = assay: Test Example 4: effect on crop by soil treatment (symbol c); settings: application herbicide amount 320 g/ha
In short: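 Grown at 25° C. to 30° C. in a greenhouse, the crops came from seed sown spot-wise in sterilized diluvial soil under roughly 1.5 cm of covering soil.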

Stellaria media [4] = assay: Test Example 5: herbicidal effect by foliage application, plastic box (symbol P); settings: 320 g/ha, 3 weeks after application
In short: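 Effect is rated 3 weeks after a foliar spray of water-diluted emulsion concentrate at a predetermined herbicide amount. Plants had grown 14 days in a 25° C. to 30° C. greenhouse from seed in sterilized diluvial soil.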

wheat = assay: Test Example 5: effect on crop by foliage application, plastic box (symbol e); settings: 320 g/ha, 3 weeks after application
In short: (§4)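 Diluvial soil, sterilized and boxed (21 × 13 × 7 cm), received spot-sown seed covered by about 1.5 cm soil; plants were then greenhouse-grown at 25–30° C.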

rapeseed = assay: Test Example 5: effect on crop by foliage application, plastic box (symbol g); settings: 320 g/ha, 3 weeks after application
In short: as §4

Structure (SMILES) | Herbicidal effect grade, A: Echinochloa oryzacola Vasing. [1] | Herbicidal effect grade, C: Monochoria vaginalis (Monochoria vaginalis) | herbicidal effect on H (Echinochloa crus-galli var. crus-galli), grade 0-5 [2] | herbicidal effect on D (Leptochloa chinensis), grade 0-5 (Leptochloa chinensis) | herbicidal effect on E, grade 0-5 (Cyperus difformis) | Herbicidal effect grade, F: Digitaria ciliaris (Digitaria ciliaris) | Herbicidal effect grade, G: Setaria viridis (Setaria viridis) | Herbicidal effect grade, J: Alopecurus myosuroides (Alopecurus myosuroides) | Herbicidal effect grade, M: Abutilon theophrasti (Abutilon theophrasti) | Herbicidal effect grade, P: Stellaria media (Stellaria media [3]) | Herbicidal effect grade, R: Veronica persica (Veronica persica) | Effect on crop grade, c: corn (corn) | P: Stellaria media, herbicidal effect (criteria of Test Example 1) (Stellaria media [4]) | e: wheat, effect on crop (criteria of Test Example 1) (wheat) | g: rapeseed, effect on crop (criteria of Test Example 1) (rapeseed)
CON=C(C)CC1CC(OC(=O)COc2ccccc2)=C(c2c(C)cc(-c3ccc(Cl)cc3Cl)cc2C)C1=O (stereo not drawn) [6-092] | 1 (Herbicidal ratio of 5% or higher and lower than 20%) | 0 (Herbicidal ratio of 5% or lower (almost no effect)) | 5 (Herbicidal ratio of 90% or more (almost completely withered)) | 5 (Herbicidal ratio of 90% or more (almost completely withered)) | 4 (Herbicidal ratio of 70% or higher and lower than 90%) | 5 (Herbicidal ratio of 90% or more (almost completely withered)) | 5 (Herbicidal ratio of 90% or more (almost completely withered)) | 3 (Herbicidal ratio of 40% or higher and lower than 70%) | 0 (Herbicidal ratio of 5% or lower (almost no effect)) | 0 (Herbicidal ratio of 5% or lower (almost no effect)) | 0 (Herbicidal ratio of 5% or lower (almost no effect)) | 0 (Herbicidal ratio of 5% or lower (almost no effect)) | 3 (Herbicidal ratio of 40% or higher and lower than 70%) | 0 (Herbicidal ratio of 5% or lower (almost no effect)) | 4 (Herbicidal ratio of 70% or higher and lower than 90%)
CON=C(C)CC1CC(OC(=O)N2CCOCC2)=C(c2c(C)cc(-c3ccc(F)c(Cl)c3)cc2C)C1=O (stereo not drawn) [6-093] | 5 (Herbicidal ratio of 90% or more (almost completely withered)) | 3 (Herbicidal ratio of 40% or higher and lower than 70%) | 5 (Herbicidal ratio of 90% or more (almost completely withered)) | 5 (Herbicidal ratio of 90% or more (almost completely withered)) | 4 (Herbicidal ratio of 70% or higher and lower than 90%) | 5 (Herbicidal ratio of 90% or more (almost completely withered)) | 5 (Herbicidal ratio of 90% or more (almost completely withered)) | 3 (Herbicidal ratio of 40% or higher and lower than 70%) | 0 (Herbicidal ratio of 5% or lower (almost no effect)) | 5 (Herbicidal ratio of 90% or more (almost completely withered)) | 4 (Herbicidal ratio of 70% or higher and lower than 90%) | 0 (Herbicidal ratio of 5% or lower (almost no effect)) | 4 (Herbicidal ratio of 70% or higher and lower than 90%) | 5 (Herbicidal ratio of 90% or more (almost completely withered)) | 4 (Herbicidal ratio of 70% or higher and lower than 90%)
CON=C(C)CC1CC(OC(=O)N2CCOCC2)=C(c2c(C)cc(C)cc2OC)C1=O (stereo not drawn) [6-094] | 5 (Herbicidal ratio of 90% or more (almost completely withered)) | 1 (Herbicidal ratio of 5% or higher and lower than 20%) | 5 (Herbicidal ratio of 90% or more (almost completely withered)) | 5 (Herbicidal ratio of 90% or more (almost completely withered)) | 5 (Herbicidal ratio of 90% or more (almost completely withered)) | 5 (Herbicidal ratio of 90% or more (almost completely withered)) | 5 (Herbicidal ratio of 90% or more (almost completely withered)) | 5 (Herbicidal ratio of 90% or more (almost completely withered)) | 4 (Herbicidal ratio of 70% or higher and lower than 90%) | 0 (Herbicidal ratio of 5% or lower (almost no effect)) | 3 (Herbicidal ratio of 40% or higher and lower than 70%) | 1 (Herbicidal ratio of 5% or higher and lower than 20%) | 3 (Herbicidal ratio of 40% or higher and lower than 70%) | 4 (Herbicidal ratio of 70% or higher and lower than 90%) | 4 (Herbicidal ratio of 70% or higher and lower than 90%)
CON=C(C)CC1CC(OS(=O)(=O)N(C)C)=C(c2c(C)cc(C)cc2OC)C1=O (stereo not drawn) [6-095] | 5 (Herbicidal ratio of 90% or more (almost completely withered)) | 2 (Herbicidal ratio of 20% or higher and lower than 40%) | 5 (Herbicidal ratio of 90% or more (almost completely withered)) | 5 (Herbicidal ratio of 90% or more (almost completely withered)) | 5 (Herbicidal ratio of 90% or more (almost completely withered)) | 5 (Herbicidal ratio of 90% or more (almost completely withered)) | 5 (Herbicidal ratio of 90% or more (almost completely withered)) | 5 (Herbicidal ratio of 90% or more (almost completely withered)) | 5 (Herbicidal ratio of 90% or more (almost completely withered)) | 0 (Herbicidal ratio of 5% or lower (almost no effect)) | 0 (Herbicidal ratio of 5% or lower (almost no effect)) | 2 (Herbicidal ratio of 20% or higher and lower than 40%) | 1 (Herbicidal ratio of 5% or higher and lower than 20%) | 4 (Herbicidal ratio of 70% or higher and lower than 90%) | 4 (Herbicidal ratio of 70% or higher and lower than 90%)
